The results in this text go back to paper PMC7684578, “Isopedopeptins A–H: Cationic Cyclic Lipodepsipeptides from Pedobacter cryoconitis UP508 Targeting WHO Top-Priority Carbapenem-Resistant Bacteria” (ACS Chemical Biology, 2020).

One may read the MIC as the least concentration at which growth counts as inhibited.

In series [1] the test system is red blood cells from heparinized human blood. Nature of the series: in vitro. In kind it is cell-based. Particulars: 45 min, 100 µM, pH 7.4. On the procedure: positive control (Bortezomib) SI of <5%. The half maximal inhibitory concentration (IC50) was determined from log concentration-effect curves using non-linear regression analysis.
Frequency of resistance (FoR). For the determination of the FoR, the MIC of compound 2 was first evaluated on solid MH-agar medium prepared in 35 mm diameter plates. Each plate contained 4 mL agar with the appropriate amount of compound. Bacterial cultures were grown and prepared as described for the MIC assay. 13 µL of bacterial culture diluted to 0.5 MacFarland was inoculated into 1 mL 0.9% NaCl resulting in ~2 × 10^6 CFU/mL. 5 µL of this bacterial suspension was spotted onto the surface of each agar plate (~10^4 CFU/spot). Plates were sealed and incubated at 37°C for 18–20 hours. Agar MIC was recorded according to CLSI guidelines as the lowest concentration of […]
faint haze caused by the inoculum. Then 9 cm plates were prepared with 25 mL MHII agar medium containing 4 × or 8 × solid MIC concentrations of test compounds and seeded with 100 µL of a bacterial preparation, concentrated by centrifugation from overnight cultures and resuspended in 0.9% NaCl, corresponding to 108 CFU and 109 CFU per plate, and spread on the agar using 4–5 glass beads of 4 mm diameter. Since CFU were evaluated using the McFarland turbidity standard, the exact CFU number plated was evaluated by plating of serial dilutions of each inoculum preparation on MHII agar plates. Plates were incubated at 37°C and colonies were counted at 24 h and 48 h post-plating. The frequencies of resistance were then calculated by counting the number of validated resistant colonies growing on antibiotic preparations divided by the evaluated number of CFU in the inoculum.
Hemolysis assay. Compounds were evaluated for hemolytic activity using red blood cells from heparinized human blood. Red blood cells (RBC) were washed three times in Tyrode buffer (130 mM NaCl, 4 mM KCl, 2.8 mM NaOAc, 1 mM MgCl2, 10 mM HEPES, 10 mM glucose, 1 mM CaCl2, adjusted to pH 7.4) and resuspended in the same buffer. Final concentrations in the hemolysis assay were: 100 µM compound, 1% DMSO, and 50% RBC, assayed in a 200 µL volume in a microtiter plate. The mixture was incubated at 37 °C for 45 min with shaking (250 rpm). After incubation, RBCs were removed by centrifugation (1000 × g for 10 min), 100 µL clear plasma was transferred to a fresh microtiter plate, and the amount of hemoglobin measured using a spectrophotometer at 540 nm. The […]
complete lysis control contained 2% Triton X-100 (in Tyrode buffer) instead of compound; the negative control contained Tyrode buffer but no compound. Percent hemolysis was calculated as:
[Abs compound] - [Abs negative control] / [Abs complete lysis control] - [Abs negative control] ×
100. Values greater than 1% hemolysis at 100 µM were regarded as a red flag.
Bacterial membrane permeabilization assay. Liposomes were manufactured and permeabilization assayed as described previously.8 Briefly, dry lipid films of E. coli polar lipid extract were formed on round-bottom flask walls. This was achieved by dissolving lipids in chloroform and evaporating the solvent under agitation and nitrogen gas flow, followed by incubation in vacuum chamber. Lipid films were re-suspended by 30 min stirring (E. coli) at 55°C in an aqueous solution of 100 mM 5(6)-carboxyfluorescein in 10 mM Tris buffer (set to pH 7.4 at 37°C). Suspensions were subjected to repeated extrusion through a 100 nm pore size polycarbonate membrane in order to reduce multilamellar structures and polydispersity. Un-trapped carboxyfluorescein was removed by gel filtration. Membrane permeability was measured by monitoring carboxyfluorescein efflux from the liposomes to the external low concentration environment, resulting in loss of self-quenching and an increased fluorescence signal. The 96-well plates were prepared with a 2-fold serial dilution of the samples in Tris buffer, as well as negative controls (background) and 0.16% Triton X-100 (maximum […]
leakage). […]

The subject of series [2] is P. aeruginosa. Nature of the series: MIC determined at the Public Health Agency of Sweden (EUCAST). The format is cell-based, Pseudomonas aeruginosa. The following applies: for MIC: Pseudomonas aeruginosa, Public Health Agency of Sweden. On the procedure: 10^8 CFU/mL) with turbidity assessed using a Sensititre Nephelometer (Trek Diagnostics Systems Ltd, UK). 50 µL of this bacterial suspension was transferred to 10 mL of MHII broth to give a final bacterial concentration ≅ 5 × 10^5 CFU/mL (acceptable range 3 – 7 × 10^5 CFU/mL). 50 µL of bacterial suspension was pipetted into each well (except the medium control well, where 50 µL MHII was pipetted). Final volume in each well was 100 µL. Plates were covered and incubated without shaking for 18-20 h at 35 °C ± 2 °C. MIC was read visually, as complete inhibition of growth by the unaided eye, using the medium-only wells as the control. Each compound was assayed at least in duplicate.
Additionally, the MIC for compound 2 against clinical carbapenem-resistant strains of A. baumannii […]
determined at the Public Health Agency of Sweden (according to EUCAST recommendations).
In vitro Cytotoxicity Determination. In vitro cytotoxicity was determined by a fluorometric microculture cytotoxicity assay,7 based on hydrolysis of fluorescein diacetate to fluorescein by cells with intact plasma membranes. In short, HepG2 cells (hepatocellular carcinoma cells, ATCC), in Eagle's Minimum Essential Medium (ATCC) supplemented with 10 % fetal bovine serum, penicillin/streptomycin (100 U/100 µg/mL) and 2 mM L-glutamine, were seeded in 384-well assay plates at a density of 1000 cells/well. The cells were incubated over night at 37°C and compounds in 10 mM DMSO were added, to obtain final concentrations 64 µM – 0.25 µM in two-fold dilutions.
After incubation for 72 h at 37°C, the cells were pelleted and washed. Fluorescein diacetate was added (1 µL, 0.5 mg/mL) and the fluorescence [485 nm(exc)/530 nm(em.)] was measured after 50 min at 37°C. Bortezomib (2 µM) was used as positive control and dose response testing of doxorubicin (top concentration 2 µM) was performed repeatedly to follow assay performance over time. Cytotoxicity was assessed after 72 h with cell survival presented as survival index (SI, %) defined as fluorescence in test wells in percent of control cultures with blank values subtracted.
Criteria for a successful assay include a signal-to-noise ratio in control cultures >10, CV <30% and a 7 Lindhagen, E., Nygren, P., and Larsson, R. (2008) The fluorometric microculture cytotoxicity assay. Nat.

In brackets after ≈: the same amount, converted by molar mass. Where two headings read alike, the source gives them in different places. Starred links: 1 amine or outer side, 2 acyl side, 3 side chain; linkers in the order of their positions; H or OH if unused. Positions of bridges follow the written chain, without caps; N, C: chain ends. Non-standard residues stand in square brackets, D forms with d. Residues, ends and D or L forms follow the SMILES beside them. X2 = CCCCCCC[C@H](CC(=O)[*:1])O[*:2]; Val(3-OH) = CC(C)(O)[C@H](N)C(=O)O; X1 = C/C=C(/N[*:1])C(=O)[*:2]; Dab = NCC[C@H](N)C(=O)O; Dap = NC[C@H](N)C(=O)O

As for `C/C=C1/NC(=O)[C@H](CCN)NC(=O)[C@H](CC(C)C)NC(=O)[C@H](CN)NC(=O)C[C@@H](CCCCCCC)OC(=O)[C@H](CC(=O)O)NC(=O)[C@H](C(C)(C)O)NC(=O)[C@@H](Cc2ccccc2)NC(=O)[C@H](CN)NC(=O)[C@H]([C@@H](C)O)NC1=O` [Compound 2, isopedopeptin B] ([Dap]L[Dab][X1]T[Dap][dF][Val(3-OH)]D; linker N-C via X2), the “Hemolysis (%)” value in series [1] is 0.8%. The MIC in series [2] (ATCC27853, WT, read-out: MIC P. aeruginosa ATCC27853) was found to be 4 µg/mL (≈ 3.58 µM); in series [2] (CARBA, read-out: MIC P. aeruginosa PS826), 4 µg/mL (≈ 3.58 µM); in series [2] (CARBA, read-out: MIC P. aeruginosa PS992) it was 4 µg/mL (≈ 3.58 µM). Further, the “MIC carbapenem-resistant P. aeruginosa” value in series [2] (summary in text over strains, strains not named) was ≥ 4 µg/mL.
